This series deals with hERG potassium channel (Homo sapiens, UniProt Q12809). The experiment in a line: hERG screening assay (PatchXpress patch clamp, CHO cells).

The structures appear in SMILES notation.

Chain of hERG potassium channel (Q12809 whole entry): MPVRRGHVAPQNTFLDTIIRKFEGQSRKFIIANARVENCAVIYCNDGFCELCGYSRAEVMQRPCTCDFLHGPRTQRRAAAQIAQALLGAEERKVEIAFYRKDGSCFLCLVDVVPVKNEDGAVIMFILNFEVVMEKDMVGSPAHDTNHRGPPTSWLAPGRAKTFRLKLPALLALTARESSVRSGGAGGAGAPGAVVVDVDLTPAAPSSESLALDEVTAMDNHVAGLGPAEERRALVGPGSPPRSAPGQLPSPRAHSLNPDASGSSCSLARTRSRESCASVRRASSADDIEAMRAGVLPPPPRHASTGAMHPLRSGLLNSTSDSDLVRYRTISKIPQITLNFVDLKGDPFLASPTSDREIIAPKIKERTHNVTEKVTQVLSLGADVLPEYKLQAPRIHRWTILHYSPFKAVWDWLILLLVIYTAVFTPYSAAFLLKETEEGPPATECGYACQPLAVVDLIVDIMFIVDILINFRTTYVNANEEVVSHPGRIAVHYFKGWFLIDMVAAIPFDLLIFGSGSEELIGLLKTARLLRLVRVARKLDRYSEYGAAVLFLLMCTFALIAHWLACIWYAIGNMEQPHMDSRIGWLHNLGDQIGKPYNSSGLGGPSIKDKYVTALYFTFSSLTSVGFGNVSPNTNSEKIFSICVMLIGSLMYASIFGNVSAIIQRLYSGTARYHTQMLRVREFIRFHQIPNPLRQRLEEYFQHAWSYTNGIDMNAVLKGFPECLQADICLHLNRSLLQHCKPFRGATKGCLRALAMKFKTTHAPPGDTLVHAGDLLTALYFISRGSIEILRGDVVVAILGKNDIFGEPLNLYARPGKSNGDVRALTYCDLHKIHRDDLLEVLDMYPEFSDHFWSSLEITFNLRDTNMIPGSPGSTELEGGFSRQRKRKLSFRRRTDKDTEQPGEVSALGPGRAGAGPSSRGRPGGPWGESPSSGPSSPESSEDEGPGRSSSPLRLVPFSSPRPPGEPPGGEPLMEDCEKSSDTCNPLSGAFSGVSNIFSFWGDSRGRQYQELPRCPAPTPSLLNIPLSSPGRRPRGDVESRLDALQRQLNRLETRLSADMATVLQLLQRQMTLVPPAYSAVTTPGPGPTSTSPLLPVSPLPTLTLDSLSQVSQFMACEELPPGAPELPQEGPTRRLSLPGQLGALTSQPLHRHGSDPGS
Method: Compounds were screened to test their activity in blocking the hERG potassium channel. The hERG channel is heterologously expressed in a CHO (Chinese Hamster Ovary) cell line. Cells are maintained with standard tissue culture procedures and stable channel expression is maintained with 500 μg/ml G418 in the culture medium. Cells are harvested for testing on the PatchXpress automated patch clamp with Acctumax (Innovative Cell Technologies, San Diego, Calif.) to isolate single cells.
The following solutions are used for electrophysiological recordings. The external solution contains: 2 mM CaCl2; 2 mM MgCl2; 4 mM KCl; 150 mM NaCl; 10 mM Glucose; 10 mM HEPES (pH 7.4 with 1M NaOH, osmolarity).
hERG channels are activated when the voltage is stepped to +20 mV from the −80 mV holding potential (see FIG. 3). During a 5 second step at +20 mV, the channels activate and then largely inactivate, so the currents are relatively small. Upon returning to −50 mV from +20 mV, hERG currents transiently become much larger as inactivation is rapidly removed and then the channel closes. The first step to −50 mV for 300 ms is used as a baseline for measuring the peak amplitude during the step to −50 mV after channel activation. The peak current at −50 mV is measured both under control conditions and after addition of compound.
All compounds are prepared as 10 mM DMSO stocks in glass vials. Stock solutions are mixed by vigorous vortexing and sonication for about 2 minutes at room temperature. For testing, compounds are diluted in glass vials using an intermediate dilution step in pure DMSO and then further diluted to working concentrations in external solution. Dilutions are prepared no longer than 20 minutes before use.
After achieving the whole-cell configuration, cells are monitored for 90 seconds to assess stability and washed with external solution for 66 seconds. The voltage protocol described above is then applied to the cells every 12 seconds and throughout the whole procedure. Only cells with stable recording parameters and meeting specified health criteria are allowed to enter the compound addition procedure.
External solution containing 0.1% DMSO (vehicle) is applied to the cells first to establish the control peak current amplitude. After allowing the current to stabilize for 3 to 5 minutes, 1 μM and then 10 μM test compounds are applied. Each compound concentration is added 4 times and cells are kept in test solution until the effect of the compound reaches steady state or for a maximum of 12 minutes. […] Washout in the external solution compartment is performed until the recovery of the current reaches steady state. Data are analyzed using DataXpress, Clampfit (Molecular Devices, Inc., Sunnyvale) and Origin 7 (Originlab Corp.)

Regarding `COc1cc(Cl)ccc1COC(=O)C1=C(C)Nc2nnnn2C1c1c(Cl)cccc1Cl` (stereo not shown) [PT-306, 4-chloro-2-methoxybenzyl 7-(2,6-dichlorophenyl)-5-methyl-4,7-dihydrotetrazolo[1,5-a]pyrimidine-6-carboxylate], the “hERG Patch Clamp hERG % blk (1 μM test cmpd)” value worked out at 10% and the “hERG Patch Clamp hERG % blk (10 μM test cmpd)” value was found to be 48.5%.

On to `COc1cc(Cl)ccc1COC(=O)C1=C(C)Nc2nnnn2C1c1c(C)cccc1C` (stereo not shown) [PT-307, 4-chloro-2-methoxybenzyl 7-(2,6-dimethylphenyl)-5-methyl-4,7-dihydrotetrazolo[1,5-a]pyrimidine-6-carboxylate], for which the “hERG Patch Clamp hERG % blk (1 μM test cmpd)” value came out at 10% and the “hERG Patch Clamp hERG % blk (10 μM test cmpd)” value is listed as 62.5%.

As for `C=CCOC(=O)C1=C(C)Nc2nnnn2C1c1cccc2ccccc12` (stereo not shown) [PT-319, allyl 5-methyl-7-(naphthalen-1-yl)-4,7-dihydrotetrazolo[1,5-a]pyrimidine-6-carboxylate], the “hERG Patch Clamp hERG % blk (1 μM test cmpd)” value was determined as 10% and the “hERG Patch Clamp hERG % blk (10 μM test cmpd)” value came to 41%.

Turning to `CC1=C(C(=O)OCc2ccccc2)C(c2ccc3ccccc3c2)C2=C(CCCC2=O)N1` (stereo not shown) [PT-320, benzyl 2-methyl-4-(naphthalen-2-yl)-5-oxo-1,4,5,6,7,8-hexahydroquinoline-3-carboxylate], the “hERG Patch Clamp hERG % blk (1 μM test cmpd)” value worked out at 10% and the “hERG Patch Clamp hERG % blk (10 μM test cmpd)” value is 10%.

Take `CC1=C(C(=O)OCc2ccccc2)C(c2ccc3ccccc3c2)c2c(C)n[nH]c2N1` (stereo not shown) [PT-325, benzyl 3,6-dimethyl-4-(naphthalen-2-yl)-4,7-dihydro-1H-pyrazolo[3,4-b]pyridine-5-carboxylate]: the “hERG Patch Clamp hERG % blk (1 μM test cmpd)” value is reported as 10% and the “hERG Patch Clamp hERG % blk (10 μM test cmpd)” value is on record as 36%.

With `CC1=C(C(=O)OCc2ccccc2)C(c2ccccc2N2CCN(S(C)(=O)=O)CC2)n2nnnc2N1` (stereo not shown) [PT-339, benzyl 5-methyl-7-(2-(4-(methylsulfonyl)piperazin-1-yl)phenyl)-4,7-dihydrotetrazolo[1,5-a]pyrimidine-6-carboxylate], the “hERG Patch Clamp hERG % blk (1 μM test cmpd)” value stood at 11.5% and the “hERG Patch Clamp hERG % blk (10 μM test cmpd)” value stood at 43.5%.

Turning to `CC1=C(C(=O)OCc2ccccc2)C(c2ccccc2N2CCN(C)CC2)n2nnnc2N1` (stereo not shown) [PT-340, benzyl 5-methyl-7-(2-(4-methylpiperazin-1-yl)phenyl)-4,7-dihydrotetrazolo[1,5-a]pyrimidine-6-carboxylate], the “hERG Patch Clamp hERG % blk (1 μM test cmpd)” value is 57% and the “hERG Patch Clamp hERG % blk (10 μM test cmpd)” value is recorded as 93.5%.

For `CC1=C(C(=O)OCc2ccccc2)C(c2ccccc2N2CCCCC2)n2nnnc2N1` (stereo not shown) [PT-342, benzyl 5-methyl-7-(2-(piperidin-1-yl)phenyl)-4,7-dihydrotetrazolo[1,5-a]pyrimidine-6-carboxylate], the “hERG Patch Clamp hERG % blk (1 μM test cmpd)” value came to 10% and the “hERG Patch Clamp hERG % blk (10 μM test cmpd)” value was 47.5%.

As for `CC1=C(C(=O)OCc2ccccc2)C(c2ccccc2-c2cccc(NS(C)(=O)=O)c2)n2nnnc2N1` (stereo not shown) [PT-348, benzyl 5-methyl-7-(3′-(methylsulfonamido)biphenyl-2-yl)-4,7-dihydrotetrazolo[1,5-a]pyrimidine-6-carboxylate], the “hERG Patch Clamp hERG % blk (1 μM test cmpd)” value is 10% and the “hERG Patch Clamp hERG % blk (10 μM test cmpd)” value turned out to be 38.5%.

In the case of `CC1=C(C(=O)OCc2ccccc2)C(c2nccs2)n2nccc2N1` (stereo not shown) [PT-363, benzyl 5-methyl-7-(thiazol-2-yl)-4,7-dihydropyrazolo[1,5-a]pyrimidine-6-carboxylate], the “hERG Patch Clamp hERG % blk (1 μM test cmpd)” value came out at 10% and the “hERG Patch Clamp hERG % blk (10 μM test cmpd)” value is on record as 19.5%.

For the compound `CC1=C(C(=O)OCc2ccccc2)C(c2nccs2)n2nnnc2N1` (stereo not shown) [PT-364, benzyl 5-methyl-7-(thiazol-2-yl)-4,7-dihydrotetrazolo[1,5-a]pyrimidine-6-carboxylate], the “hERG Patch Clamp hERG % blk (1 μM test cmpd)” value came out at 10% and the “hERG Patch Clamp hERG % blk (10 μM test cmpd)” value was 17.5%.

Take `CC1=C(C(=O)OCc2ccccc2)C(c2nccs2)c2cn[nH]c2N1` (stereo not shown) [PT-369, benzyl 6-methyl-4-(thiazol-2-yl)-4,7-dihydro-1H-pyrazolo[3,4-b]pyridine-5-carboxylate]: the “hERG Patch Clamp hERG % blk (1 μM test cmpd)” value is 10% and the “hERG Patch Clamp hERG % blk (10 μM test cmpd)” value turned out to be 25%.

For `CCS(=O)(=O)N1CCN(c2cccc(OC)c2C2C(C(=O)OCc3ccccc3)=C(C)Nc3nnnn32)CC1` (stereo not shown) [PT-378, benzyl 7-(2-(4-(ethylsulfonyl)piperazin-1-yl)-6-methoxyphenyl)-5-methyl-4,7-dihydrotetrazolo[1,5-a]pyrimidine-6-carboxylate], the “hERG Patch Clamp hERG % blk (1 μM test cmpd)” value stood at 10% and the “hERG Patch Clamp hERG % blk (10 μM test cmpd)” value stood at 41.5%.

As to `CC1=C(C(=O)OCc2ccccc2)C(c2c(Br)sc3ccccc23)n2nnnc2N1` (stereo not shown) [PT-386, benzyl 7-(2-bromobenzo[b]thiophen-3-yl)-5-methyl-4,7-dihydrotetrazolo[1,5-a]pyrimidine-6-carboxylate], the “hERG Patch Clamp hERG % blk (1 μM test cmpd)” value is 10% and the “hERG Patch Clamp hERG % blk (10 μM test cmpd)” value worked out at 16.5%.

Turning to `CC1=C(C(=O)OCc2ccccc2)C(c2occc2-c2ccc(F)cc2)n2nnnc2N1` (stereo not shown) [PT-396, benzyl 7-(3-(4-fluorophenyl)furan-2-yl)-5-methyl-4,7-dihydrotetrazolo[1,5-a]pyrimidine-6-carboxylate], the “hERG Patch Clamp hERG % blk (1 μM test cmpd)” value turned out to be 10% and the “hERG Patch Clamp hERG % blk (10 μM test cmpd)” value worked out at 32%.

Consider `CC1=C(C(=O)OCc2ccccc2)C(c2sccc2-c2ccc(F)cc2)n2nnnc2N1` (stereo not shown) [PT-397, benzyl 7-(3-(4-fluorophenyl)thiophen-2-yl)-5-methyl-4,7-dihydrotetrazolo[1,5-a]pyrimidine-6-carboxylate], for which the “hERG Patch Clamp hERG % blk (1 μM test cmpd)” value stood at 10% and the “hERG Patch Clamp hERG % blk (10 μM test cmpd)” value was 25%.

Regarding `CC(=O)c1ccc(-c2ccccc2C2C(C(=O)OCc3ccccc3)=C(C)Nc3nnnn32)cc1` (stereo not shown) [PT-415, benzyl 7-(4′-acetylbiphenyl-2-yl)-5-methyl-4,7-dihydrotetrazolo[1,5-a]pyrimidine-6-carboxylate], the “hERG Patch Clamp hERG % blk (1 μM test cmpd)” value was determined as 10.5% and the “hERG Patch Clamp hERG % blk (10 μM test cmpd)” value is listed as 38.5%.

`CCOC(=O)C1=C(C)Nc2[nH]ncc2C1c1ccc(OC)cc1OCc1ccccc1` (stereo not shown) [PT-445, ethyl 4-(2-(benzyloxy)-4-methoxyphenyl)-6-methyl-4,7-dihydro-1H-pyrazolo[3,4-b]pyridine-5-carboxylate]: the “hERG Patch Clamp hERG % blk (1 μM test cmpd)” value stood at 10.5% and the “hERG Patch Clamp hERG % blk (10 μM test cmpd)” value was determined as 50%.

Take `CCOC(=O)C1=C(C)Nc2[nH]ncc2C1c1ccccc1Br` (stereo not shown) [PT-448, ethyl 4-(2-bromophenyl)-6-methyl-4,7-dihydro-1H-pyrazolo[3,4-b]pyridine-5-carboxylate]: the “hERG Patch Clamp hERG % blk (1 μM test cmpd)” value was 10% and the “hERG Patch Clamp hERG % blk (10 μM test cmpd)” value was 57.5%.

Take `CCOC(=O)C1=C(C)Nc2nnnn2C1c1ccccc1-n1ccnc1C.Cl` (stereo not shown) [PT-457, ethyl 5-methyl-7-(2-(2-methyl-1H-imidazol-1-yl)phenyl)-4,7-dihydrotetrazolo[1,5-a]pyrimidine-6-carboxylate hydrochloride]: the “hERG Patch Clamp hERG % blk (1 μM test cmpd)” value was 10% and the “hERG Patch Clamp hERG % blk (10 μM test cmpd)” value is recorded as 21%.

(Values after patent publication US20090181986A1, “SUBSTITUTED HETEROCYCLIC COMPOUNDS” (priority 2007, published 2009).)
